Laboratory results: ChEMBL document CHEMBL1201862, “PubChem BioAssay data set” (2004)
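Interpolation was linear, between the two tested concentrations surrounding the appropriate level; five concentrations were tested over 48 hours in 96-well plates. At the GI50, growth is halved.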 The source made the active and inactive calls. Rule as the data show it: active = GI50 up to about 1.1 µM and inactive = higher.

How the values were obtained:
Assay in all cases: NCI anticancer screen, dose series, 48 h
[1] = system: ACHN
[2] = system: BT-549
[3] = system: CAKI-1
[4] = system: EKVX
[5] = system: HCT-15
[6] = system: HT-29
[7] = system: Hs-578T
[8] = system: KM12
[9] = system: LOX IMVI
[10] = system: NCI-H226
[11] = system: OVCAR-4
[12] = system: OVCAR-8
[13] = system: PC-3
[14] = system: SF-295
[15] = system: SK-MEL-5
[16] = system: SN12C
[17] = system: SNB-19
[18] = system: SNB-75
[19] = system: HL-60

Compound | GI50 [1] | GI50 [2] | GI50 [3] | GI50 [4] | GI50 [5] | GI50 [6] | GI50 [7] | GI50 [8] | GI50 [9] | GI50 [10] | GI50 [11] | GI50 [12] | GI50 [13] | GI50 [14] | GI50 [15] | GI50 [16] | GI50 [17] | GI50 [18] | GI50 [19]
COc1cccc2c3ccccc3c3nc[nH]c3c12 | 44.2 µM (inactive) | > 71.1 µM (inactive) | 48.4 µM (inactive) | > 48.3 µM (inactive) | 27.7 µM | 31.6 µM (inactive) | < 0.01 µM (active) | 18.7 µM (inactive) | 33.8 µM (inactive) | 37.8 µM (inactive) | > 88.7 µM (inactive) | > 100 µM (inactive) | 30.8 µM (inactive) | 16 µM (inactive) | 16.7 µM (inactive) | > 66.5 µM (inactive) | > 46.8 µM (inactive) | > 47.8 µM (inactive) | –
COC(=O)NC1C(C)OC(OC2C/C=C(/C)C3C=CC4C(OC5CC(OC6CC(OC7CC(O)C(O)C(C)O7)C(OC7CC(O)C(OC)C(C)O7)C(C)O6)C(O)C(C)O5)C(C)CC(C)C4C3(C)C(=O)C3=C(O)C4(CC(C)C(CO)=CC4/C=C\2C)OC3=O)CC1(C)[N+](=O)[O-] (configuration not stated) | 11.6 µM (inactive) | 20.8 µM (inactive) | 16 µM (inactive) | 14.4 µM (inactive) | 15.6 µM | 7.83 µM (inactive) | 6.85 µM (inactive) | 6.7 µM (inactive) | 3.23 µM (inactive) | – | 17.5 µM (inactive) | 8.57 µM (inactive) | 16.3 µM (inactive) | 4.6 µM (inactive) | 5.22 µM (inactive) | 11.7 µM (inactive) | 21.2 µM (inactive) | 2.47 µM (inactive) | 2.54 µM (inactive)
[N-]=[N+]=NC(c1cn(C2CC(O)C(CO)O2)c(=O)[nH]c1=O)C(Cl)I (configuration not stated) | > 100 µM (inactive) | > 100 µM (inactive) | – | > 100 µM (inactive) | > 100 µM | > 100 µM (inactive) | > 100 µM (inactive) | > 100 µM (inactive) | – | > 100 µM (inactive) | > 100 µM (inactive) | > 100 µM (inactive) | – | > 100 µM (inactive) | > 100 µM (inactive) | > 100 µM (inactive) | > 100 µM (inactive) | 33.3 µM (inactive) | –
COc1cc2c(c(OC)c1O)-c1ccc(OC)c(=O)cc1[C@@H](NC(=O)C(F)(F)F)CC2 | 0.745 µM (active) | 1.98 µM (inactive) | 0.405 µM (active) | 1.53 µM (inactive) | 1.16 µM | 0.0333 µM (active) | 0.019 µM (active) | 0.0482 µM (active) | 0.163 µM (active) | 0.391 µM (active) | > 26.1 µM (inactive) | 0.243 µM (active) | 0.0706 µM (active) | 0.392 µM (active) | 0.0242 µM (active) | 2.52 µM (inactive) | 0.0975 µM (active) | – | 0.0217 µM (active)
Cc1nn2c(N)cc(=O)nc2nc1/C=C/c1ccc(N(C)C)cc1 | 18 µM (inactive) | > 32 µM (inactive) | 3.45 µM (inactive) | 7.23 µM (inactive) | – | 4.76 µM (inactive) | 6.84 µM (inactive) | > 28.8 µM (inactive) | 4.11 µM (inactive) | > 66.5 µM (inactive) | > 26.5 µM (inactive) | > 25.2 µM (inactive) | > 100 µM (inactive) | > 79.3 µM (inactive) | 20.6 µM (inactive) | > 65.6 µM (inactive) | 29.9 µM (inactive) | – | < 0.01 µM (active)
O=c1cc(-c2ccccc2)oc2ccc(-c3ccc4oc(-c5ccccc5)cc(=O)c4c3)cc12 | 20.5 µM (inactive) | > 10 µM (inactive) | 16.6 µM (inactive) | 3.75 µM (inactive) | 15.8 µM | 30.9 µM (inactive) | 12.2 µM (inactive) | – | 17.3 µM (inactive) | – | 19.3 µM (inactive) | 16.6 µM (inactive) | > 10 µM (inactive) | 20.8 µM (inactive) | 12.9 µM (inactive) | > 10 µM (inactive) | 6.82 µM (inactive) | – | 10.1 µM (inactive)
Clc1ccc(COC(Cn2ccnc2)c2ccc(Cl)cc2Cl)cc1 (configuration not stated) [ECONAZOLE NITRATE] | 12.8 µM (inactive) | 15.2 µM (inactive) | 7.31 µM (inactive) | 12.1 µM (inactive) | 12.8 µM | 8.49 µM (inactive) | 17.1 µM (inactive) | 12.1 µM (inactive) | 9.57 µM (inactive) | – | 8.3 µM (inactive) | 14.8 µM (inactive) | 9.16 µM (inactive) | 9.57 µM (inactive) | – | 12.1 µM (inactive) | 14.9 µM (inactive) | 15.6 µM (inactive) | 4.19 µM (inactive)
COc1ccc(C(=O)O[C@H]2CC[C@@]3(C)[C@@H]4CC[C@H]5[C@]6(O)C[C@H](O)[C@@]7(O)[C@@H](CN8C[C@@H](C)CC[C@H]8[C@@]7(C)O)[C@]6(O)C[C@@]53OC24O)cc1OC [VERATRIDINE] | > 100 µM (inactive) | > 100 µM (inactive) | > 100 µM (inactive) | > 100 µM (inactive) | > 100 µM | 60.1 µM (inactive) | > 100 µM (inactive) | > 100 µM (inactive) | > 100 µM (inactive) | 44.3 µM (inactive) | > 100 µM (inactive) | > 100 µM (inactive) | > 100 µM (inactive) | > 100 µM (inactive) | > 100 µM (inactive) | > 100 µM (inactive) | > 100 µM (inactive) | 23.4 µM (inactive) | –
